“And” between values parts separate entries of the source, which are not always exact repeats. Equal entries are not always repeated. Starred links: 1 amine or outer side, 2 acyl side, 3 side chain; linkers in the order of their positions; H or OH if unused. Positions of bridges follow the written chain, without caps; N, C: chain ends. Non-standard residues stand in square brackets, D forms with d. Residues, ends and D or L forms follow the SMILES beside them. Chains are numbered I, II in the order given. *: point of attachment. Actinocin(9to1) = Cc1c2oc3c(C)ccc(C(=O)[*:1])c3nc-2c(C(=O)[*:2])c(N)c1=O; NMeV = CN[C@H](C(=O)O)C(C)C; Cbz = O=C(OCc1ccccc1)*; Sar = CNCC(=O)O; CH2F = FC*
Assays:
[1] = tested on: primary hippocampal neurons; experiment: excitotoxic cell death of primary hippocampal neurons, trypan blue exclusion; type: cell-based, rat
Procedure: Primary hippocampal neurons were prepared from 18-day-old embryonic Sprague-Dawley rats as described previously by Haughey, N. J. et al. (2001). Briefly, hippocampal tissue was dissociated by gentle tituration in a calcium-free Hank's balanced salt solution and was centrifuged at 1000×g. Cells were resuspended in Dulbecco's modified Eagle's medium (DMEM)/F12 nutrient mixture containing 10% heat-inactivated fetal bovine serum and 1% antibiotic solution (104 IU of penicillin G/ml, 10 mg streptomycin/ml and 25 μg amphotericin B/ml) in 0.9% NaCl (Sigma, St Louis, Mo., USA). Hippocampal neurons were plated at a density of 2×10^5 cells/ml on 12-mm diameter poly d-lysine-coated glass coverslips. Three hours after plating, the media was replaced with serum-free Neurobasal media containing 1% B-27 supplement (Gibco, Rockville, Md., USA).
To determine the extent to which NMDA-type glutamate receptors were involved in BNIP3 expression and excitotoxic cell death, the inventors used the agonist NMDA (100 μM) in the absence or presence of the NMDA receptor antagonist MK-801 (10 μM). To determine the extent to which caspase activation contributes to BNIP3-mediated cell death, hippocampal cells were incubated in the absence or presence of the broad spectrum cell permeable caspase inhibitors z-VAD-FMK (50 μM) and BOC-D-FMK (50 μM); these inhibitors were applied 30 minutes prior to application of glutamate or NMDA. […]
(§1) In vitro cell death was estimated using trypan blue exclusion. Cells were incubated in 0.4% trypan blue solution for 30 minutes and then counted on a bright-field microscope. Nonviable cells were distinguished by their dark blue staining. To examine nuclear morphology, nuclear DNA was stained with Hoescht 33342. DNA fragmentation was detected by TUNEL using an in situ cell death detection kit with fluorescein. Statistical analyses were by ANOVA with Tukey's post-test.

293T cells [2] = experiment: DNA fragmentation (TUNEL) in transfected 293T cells; type: cell-based; set-up: dose or concentration left out as unconfirmed
Procedure: DNA fragmentation was detected using the in situ cell death detection kit with fluorescein (Boehringer Mannheim) as per the manufacturer's recommendations in the presence or absence of […] Ac-zVAD-fmk or Ac-FA-fmk. Images were captured as described earlier. No fewer than 200 nuclei were scored manually for each sample. Annexin V staining was performed exactly as described by the manufacturer (Boehringer Mannheim), and samples were analyzed via flow cytometry.

MCF-7 cells = experiment: cytochrome c release by indirect immunofluorescence, MCF-7; type: cell-based
Procedure: (§2) Mitochondria were isolated from CaP04-transfected 293T cells using 70 strokes (tight pestle) in a 1-ml Dounce homogenizer (Wheaton) in […] of CFS buffer as previously described (Thornberry, N. A., et al., 1998). Mitochondria were resuspended in H buffer (Thornberry, N. A., et al., 1998). Aliquots of […] of protein were analyzed on Laemmli SDS-15% PAGE gels and immunoblotted with anticytochrome c monoclonal antibody. Equal loading was ensured by probing the same blot with monoclonal antiactin. Results were visualized with enhanced chemiluminescence. Cytochrome c release was also determined via indirect immunofluorescence of transfected MCF-7 and 293T cells. Briefly, cells grown on coverslips were costained with Cy3-conjugated mouse anti-cytochrome c monoclonal antibody and an appropriate tag (HA for BNIP3 and FLAG for tBID), which was visualized with FITC-conjugated goat anti-rabbit IgG. Cells were also stained with Hoechst dye to determine apoptotic nuclear morphology. No fewer than 200 cells were scored for each sample. Fluorescence was visualized and captured using a Zeiss axiophot microscope equipped with a cooled charge-coupled device camera.

ventricular myocytes = experiment: cell viability of ventricular myocytes, calcein acetoxymethyl ester / ethidium homodimer-1; type: cell-based; details: for BNIP3-induced cell death of ventricular myocytes: z-VAD-fmk 25 to 100 μmol/L, dose dependent
Procedure: Ventricular myocytes were isolated from 1- to 2-day-old Sprague-Dawley rats (University of Manitoba, Winnipeg, Canada) and submitted to primary culture as reported (Kirshenbaum and Schneider, 1995). Myocytes were subjected to hypoxia for 24 hours in an air-tight chamber continually gassed with 95% N2-5% CO2, as previously reported (Moissac et al., 2000; Long et al., 1997; Tanaka et al., 1994). Adult rat hearts (n=3) were excised from adult rats (250 to 300 g) and subjected to global hypoxia for 1 hour on a modified Langendorff perfusion system with buffer continually gassed with 95% N2-5% CO2, as previously reported (Kirshenbaum, 1993). Heart failure was induced in rats by surgical ligation of the left anterior descending coronary artery, as previously reported (Dixon et al., 1992). Non-failing sham control hearts and those with heart failure were excised from animals 8 weeks after myocardial infarction. Hearts (n=3) were dissected to remove the infarcted scar tissue, and the left ventricular free wall was homogenized and analyzed by Western blot for BNIP3 expression. Animals were handled according to guidelines established by the University of Manitoba and Canadian Council on Animal Care.
The cDNAs for BNIP3 full-length (BNIP3) and carboxyl terminal transmembrane domain deletion mutant (BNIP3ΔTM) have been described previously (Vande et al., 2000). Recombinant adenoviruses encoding the full-length BNIP3 or transmembrane deletion mutant are designated AdBNIP3 or AdBNIP3ΔTM, respectively, and generated as reported previously (Kirshenbaum et al., 1993).
Cell viability was determined using the vital dyes 2 μmol/L calcein acetoxymethyl ester (green) to determine the number of living cells and 2 μmol/L ethidium homodimer-1 (red) (Molecular Probes) to identify the number of dead cells (Kirshenbaum and Schneider, 1995). The number of green cells versus red cells was used to determine changes in cell viability (Moissac et al., 2000). Cells were analyzed from at least n=3 independent myocyte isolations counting ≧200 cells for each condition tested. Data are expressed as mean±SE percent reduction from control.

[3] = tested on: primary hippocampal neurons; experiment: primary hippocampal neurons transfected with BNIP3 plasmids, DNA condensation and survival; type: cell-based, rat
Procedure: Transfection of cells was performed on day four in culture with LipofectAMINE 2000 […] according to manufacturer's protocol. Cells were transfected with a pcDNA3-BNIP3 plasmid encoding the full length of BNIP3 and a pcDNA3-BNIP3-163 plasmid that encodes a truncated form (the first 163 amino acids) of BNIP3 that lacks the functional transmembrane domain. Cells were used after 9 days in culture for excitotoxicity experiments. Neuronal cell death was assessed using trypan blue exclusion, morphological changes, and Hoescht 33342 staining. Morphological characteristics were examined on a Nikon Eclipse TE200 microscope and fluorescence was examined on a Zeiss Axioskop 2.
as §1

caspase 3-like proteases = experiment: caspase activation, colorigenic cleavage of Ac-DEVD-pNA by lysates of transfected 293T cells; type: biochemical
Procedure: Lysates were collected from 293T cells, transiently transfected via the CaP04 method (Ray, R., et al., 1999), at the indicated times. Aliquots of these lysates were run under Laemmli sodium dodecyl sulfate-polyacrylamide gel electrophoresis (SDS-PAGE) conditions and immunoblotted with mouse monoclonal anti-PARP. Results were visualized with an enhanced chemiluminescence system (Amersham Pharmacia Biotech, Amersham, U. K.). Transfected 293T cells were also assayed for caspase cleavage via colorigenic cleavage of the peptide Ac-DEVD-pNA (Biomol, Plymouth Meeting, Pa.), according to the conditions outlined by Quignon et al. (Scaffidi, C., et al., 1998), using 100 mM peptide. Where appropriate, samples were preincubated with 500 nM Ac-DEVD-fmk for 30 minutes at room temperature. Data were acquired on a Multiskan MCC/340 (Titertek) plate reader at 405 nm.

293T cells [4] = experiment: cytochrome c release by indirect immunofluorescence, 293T; type: cell-based
Procedure: as §2

PT pore = experiment: mitochondrial Dcm (DiOC6), ROS production (HE) and PI staining by flow cytometry in BNIP3-transfected 293T cells; type: cell-based; details: 293T cells, 8 hours after transfection
Procedure: Changes in mitochondrial function were determined by incubating 10 6 293T cells, transiently transfected via the CaP04 method, with either 1 mM JC-1, 40 nM DiOC6, or 2 mM dihydroethidium (HE) (all from Molecular Probes, Inc.) for 30 minutes at 37° C. in Hanks' balanced salt solution (Gibco-BRL). Cells were scored using a FACScalibur flow cytometer (Becton-Dickinson, San Jose, Calif.), and data were analyzed on Celiquest software, version 3.1 (Becton-Dickinson). Controls were performed in the presence or absence of […] mClCCP (Sigma) or an excess of 30% H2 02. For inhibition experiments, cyclosporin A (Sigma) or bongkrekic acid (a gift from J. A. Duine, Delft University, Delft, The Netherlands) was added 2 hours prior to transfection. All cells were harvested 8 hours after transfection and stained with 40 nM DiOC6, 2 mM HE, or 1 mg of propidium iodide (PI) (Sigma) per ml. In all cases, samples were gated to exclude cellular debris.

MEFs = experiment: b-galactosidase cell death assay in wild-type, Apaf-1, caspase 9 or caspase 3 deficient MEFs; type: cell-based, mouse
Procedure: (§3) Various doses of the peptide caspase inhibitor Ac-zVAD-fmk (Enzyme System Products, Dublin, Calif.) were applied to 1×10^5 293T cells cotransfected, using LipofectAmine reagent (Gibco-BRL), with 0.01 mg of the reporter plasmid pcDNA3bgal plus the indicated expression plasmids to a final amount of 0.75 mg of DNA (see FIG. 2), as adjusted with empty vector. Cells were fixed, stained, and evaluated 27 hours posttransfection as described previously (Miura, M. et al., 1993). Similar strategies were used to evaluate the expression of pcDNA1-p35 as a caspase inhibitor (1.95 mg of DNA total) and to determine the killing efficiency of BNIP3 expressed in MEF cells (1.2 mg of DNA with 0.3 mg of b-galactosidase).
Results are expressed as the mean […] SE from three independent experiments. […] N, N-Dimethyl formamide (DMF) was used to dilute the adriamycin.

293T cells [5] = experiment: b-galactosidase cell death assay in transiently transfected 293T cells; type: cell-based
Procedure: as §3

[6] = inhibitor, 24 hours posttransfection

CN[C@H](CC(=O)O)C(=O)O [NMDA]
neuronal cell death (trypan blue exclusion) ([1]; 6 hours after application, p<0.01): significantly increased

CC(=O)NC(Cc1ccccc1)C(=O)NC(C)C(=O)CF (stereo not shown) [Ac-FA-fmk]
DNA fragmentation (TUNEL) in parallel populations (293T cells [2]; Ac-FA-fmk): No effect

Cc1c2oc3c(C)ccc(C(=O)N[C@@H]4C(=O)N[C@H](C(C)C)C(=O)N5CCC[C@H]5C(=O)N(C)CC(=O)N(C)[C@@H](C(C)C)C(=O)O[C@@H]4C)c3nc-2c(C(=O)N[C@@H]2C(=O)N[C@H](C(C)C)C(=O)N3CCC[C@H]3C(=O)N(C)CC(=O)N(C)[C@@H](C(C)C)C(=O)O[C@@H]2C)c(N)c1=O [actinomycin D] (I: T[dV]P[Sar][NMeV] / II: T[dV]P[Sar][NMeV]; ester I:1-I:C, II:1-II:C; linker I:N-II:N via Actinocin(9to1))
number of trypan blue positive cells caused by glutamate toxicity ([1]; actinomycin D 1 mg/ml added, p<0.01, to untreated control levels): significantly decreased
cell death rates, drug alone ([1]; actinomycin D alone): did not affect

BNIP3: full-length BNIP3, expressed from plasmid or adenovirus; mutation None
cytochrome c release (in words) (MCF-7 cells): no significant cytochrome c release
increase in myocyte death (ventricular myocytes; adenovirus encoding full-length BNIP3 versus control virus, P<0.05): 8.3 fold
neurons surviving glutamate toxicity ([3]; glutamate 100 μM at day 9 in culture, 5 days after transfection): 32%
BNIP3-positive neurons showing DNA condensation / DNA damage ([3]; transiently transfected hippocampal neurons): 81% and 85%
increase in Ac-DEVD-pNA substrate cleavage after transfection (caspase 3-like proteases; 293T lysates harvested 1 to 36 hours posttransfection, versus untransfected controls): only marginal increases
cytochrome c release (in words) (293T cells [4]): only very low levels
DiOC6-low and HE-high cells (PT pore): 55%
cell death induced by transient transfection (MEFs; wild-type and all mutant MEF lines): 50%

CC(=O)N[C@@H](CC(=O)O)C(=O)N[C@@H](CCC(=O)O)C(=O)N[C@H](C(=O)N[C@@H](CC(=O)O)C(=O)CF)C(C)C [Ac-DEVD-fmk]
proteolytic activity of lysates of BNIP3 or BNIP3DTM transfected cells with inhibitor (caspase 3-like proteases; 500 nM Ac-DEVD-fmk): not inhibited
Ac-DEVD-pNA substrate cleavage in tBID-transfected cells with inhibitor (caspase 3-like proteases; lysates preincubated with 500 nM Ac-DEVD-fmk): blocked

COC(=O)C[C@H](NC(=O)[C@H](C)NC(=O)[C@@H](NC(=O)OCc1ccccc1)C(C)C)C(=O)CF [Ac-zVAD-fmk] (Cbz-Val-Ala-Asp(OMe)-CH2F)
BNIP3-induced cell death of ventricular myocytes (ventricular myocytes; listed as z-VAD-fmk): prevented
BNIP3-induced cell death of ventricular myocytes (ventricular myocytes; listed as z-VADfmk): suppressed
BNIP3-induced cell death in presence of caspase inhibitor (293T cells [5]; 293T cells transfected with BNIP3, evaluated 27 hours posttransfection, p35 plasmid up to 1.5 mg): unaffected
suppression of cell death of tBID or caspase 9/Apaf-1 transfectants (293T cells [5]; 293T cells, 27 hours posttransfection, same concentration of inhibitor): greater than 50%
DNA fragmentation (TUNEL) in BNIP3 transfectants (293T cells [2]; [6]): partially inhibited
DNA fragmentation (TUNEL) in tBID-expressing cells (293T cells [2]; [6]): nearly completely inhibited
cell death caused by glutamate or NMDA ([1]; z-VAD-FMK 50 μM alone, trypan blue 6 hours after glutamate or NMDA): did not prevent

COc1cccc2c1C(=O)c1c(O)c3c(c(O)c1C2=O)C[C@@](O)(C(=O)CO)C[C@@H]3O[C@H]1C[C@H](N)[C@H](O)[C@H](C)O1 [adriamycin]
adriamycin-induced cell death in mutant MEFs (MEFs; Apaf-1, caspase 9 or caspase 3 deficient MEFs, 3 mg of adriamycin per ml for 24 hours): profound resistance

Source: patent publication US7452869B2, “NIP3 family of proteins” (University of Manitoba, priority 2000, dated 2008)
